{
  "source": "patent US20150190440A1",
  "about": "“BLOOD PRESSURE REDUCING COMPOSITION FABRICATED BY USING MONASCUS PURPUREUS NTU 568 AND PRIMER FOR THE MONASCUS PURPUREUS NTU 568” (Sunway Biotech Co., LTD, priority 2014, published 2015)",
  "format_in_all_cases": "in vivo, rat",
  "key": {"[1]": {"system": "Spontaneous hypertensive rats (SHRs)", "test": "Heart rate of SHRs", "settings": "M: SHR, amlodipine 0.4 mgkg-1day-1", "description": "(§1) Spontaneous hypertensive rats (SHRs) and Wistar-Kyoto strains of normotensive rats (WKYs) are chosen to be experiment animals, wherein the SHRs would spontaneously suffer from the hypertension when they grow to 5˜6 weeks old. Herein, 8-week old SHRs are used for carrying out the experiments, and these 8-week old SHRs and WKYs are pre-fed with chew diet and water for 5 weeks before starting the experiments. Herein, it needs to further explain that, the experiment groups listed in Table 6 are divided to 9 groups. The rats in the 9 groups are fed with the main feeding stuffs (i.e., chew diet and water) during first week to 13-th week. Moreover, the rats in the 9 groups are fed with the main feeding stuffs as well as the extract feeding stuffs at 14-th week in order to accomplish one single oral administration experiments; therefore, the rats in the 9 groups are continuously fed with the main feeding stuffs as well as the extract feeding stuffs starting from 14-th week and continuing for 8 weeks, so as to carry out one chronic administration experiment. The designed experiment groups consist of:\nContinuously, please refer to following Table 10, which record the heart rate data of SHRs and WKYs in the experiment groups listed in Table 6. From Table 10, it can find that the heart rate of SHRs in 1R, 5R, 1RM, and 5RM groups are normal comparing to the heart rate of SHRs in C group. Moreover, the heart rate of SHRs in W1R and W5R groups are normal comparing to the heart rate of WKYs in WC group."}, "[2]": {"system": "Spontaneous hypertensive rats (SHRs)", "test": "Blood pressure in 8-week chronic administration experiment in SHRs", "settings": "M: SHR", "source_text": "(§2) Spontaneous hypertensive rats (SHRs) and Wistar-Kyoto strains of normotensive rats (WKYs) are chosen to be experiment animals, wherein the SHRs would spontaneously suffer from the hypertension when they grow to 5˜6 weeks old. Herein, 8-week old SHRs are used for carrying out the experiments, and these 8-week old SHRs and WKYs are pre-fed with chew diet and water for 5 weeks before starting the experiments. […] The rats in the 9 groups are fed with the main feeding stuffs (i.e., chew diet and water) during first week to 13-th week. Moreover, the rats in the 9 groups are fed with the main feeding stuffs as well as the extract feeding stuffs at 14-th week in order to accomplish one single oral administration experiments; therefore, the rats in the 9 groups are continuously fed with the main feeding stuffs as well as the extract feeding stuffs starting from 14-th week and continuing for 8 weeks, so as to carry out one chronic administration experiment.\nMoreover, because the experiments use “2.2 g” as a standard feeding dosage, the “1-fold” in Table 6 can be calculated to 176 mgkg^−1day^−1 according to BSA value of the SHRs. Herein, it needs to further explain that, M group is taken as a positive control group because amlodipine is a well-known blood pressure lowering substance. In the experiments, the lowest effective dosage (i.e., 1-fold dosage) for amlodipine is defined to 0.4 mgkg^−1day^−1."}, "[3]": {"system": "Spontaneous hypertensive rats (SHRs)", "test": "Kidney function, electrolytes and creatine phosphokinase indexes of SHRs", "settings": "M: SHR, amlodipine 0.4 mgkg-1day-1", "description": "as §1\nContinuously, please refer to following Table 12, which record the data of kidney function indexes, electrolytes indexes and creatine phosphokinase indexes of SHRs and WKYs in the experiment groups listed in Table 6. From Table 12, it can find that the kidney function indexes, the electrolytes indexes and the creatine phosphokinase indexes of SHRs in 1R, 5R, 1RM, and 5RM groups are normal comparing to the kidney function indexes, the electrolytes indexes and the creatine phosphokinase indexes of SHRs in C group. Moreover, the kidney function indexes, the electrolytes indexes and the creatine phosphokinase indexes of SHRs in W1R and W5R groups are normal comparing to the kidney function indexes, the electrolytes indexes and the creatine phosphokinase indexes of WKYs in WC group. Wherein the kidney function indexes include blood urea nitrogen (BUN), creatinine and uric acid, and the electrolytes indexes include sodium and potassium. […] It is well know that, when the kidney is at a kidney failure situation, the concentration of creatinine and uric acid in blood serum would increase. […] It is well know that, when the muscle is subject to damage, the concentration of CPK in blood serum would increase."}, "[4]": {"system": "Spontaneous hypertensive rats (SHRs)", "test": "Liver function indexes of SHRs", "settings": "M: SHR, amlodipine 0.4 mgkg-1day-1", "description": "as §1\nWith reference to following Table 11, which record the liver function indexes data of SHRs and WKYs in the experiment groups listed in Table 6. […] Wherein the liver function indexes data include: aspartate aminotransferase (AST), alanine aminotransferase (ALT), alkaline phosphatase, albumin, globulin, γ-Glutamyltransferase (γ-GT), total protein, and A/G ratio."}, "[5]": {"system": "Spontaneous hypertensive rats (SHRs)", "test": "Blood pressure after one single oral administration in SHRs", "settings": "M: SHR", "source_text": "as §2\nAccording to the body surface area (BSA) equation provided by Food and Drug Administration (FDA), the BSA of a standard person with the body height of 170 cm and the body weight of 65 kg can be calculated through the mathematical calculation formula of BSA (m^2)=0.003207{H^0.3×W^[0.07285−(0.0188×LOG (w))]}, wherein the BSA value obtained from aforesaid calculation formula for the standard person is 1.762 m^2. On the other hand, the BSA value for the SHRs can also be calculated through the mathematical calculation formula of BSA (m^2) (8.99 W^0.6899)/100, and the BSA value is 0.049 m^2. Moreover, because the experiments use “2.2 g” as a standard feeding dosage, the “1-fold” in Table 6 can be calculated to 176 mgkg^−1day^−1 according to BSA value of the SHRs. Herein, it needs to further explain that, M group is taken as a positive control group because amlodipine is a well-known blood pressure lowering substance. In the experiments, the lowest effective dosage (i.e., 1-fold dosage) for amlodipine is defined to 0.4 mgkg^−1day^−1."}, "[6]": {"system": "Spontaneous hypertensive rats (SHRs)", "test": "Blood lipids of SHRs", "settings": "M: SHR, amlodipine 0.4 mgkg-1day-1", "description": "as §1, with “experiment.” for “experiment. The designed experiment groups consist of:”"}, "[7]": {"settings": "amlodipine 0.4 mgkg-1day-1, 0 week"}, "[8]": {"settings": "amlodipine 0.4 mgkg-1day-1, 2 week"}, "[9]": {"settings": "amlodipine 0.4 mgkg-1day-1, 4 week"}, "[10]": {"settings": "amlodipine 0.4 mgkg-1day-1, 6 week"}, "[11]": {"settings": "amlodipine 0.4 mgkg-1day-1, 8 week"}, "[12]": {"settings": "amlodipine 0.4 mgkg-1day-1, 0 hr"}, "[13]": {"settings": "amlodipine 0.4 mgkg-1day-1, 4 hr"}, "[14]": {"settings": "amlodipine 0.4 mgkg-1day-1, 8 hr"}, "[15]": {"settings": "amlodipine 0.4 mgkg-1day-1, 24 hr"}},
  "data": [
    {"compound": "CCOC(=O)C1=C(COCCN)NC(C)=C(C(=O)OC)C1c1ccccc1Cl", "note": "(centres unmarked) [amlodipine]", "values": [
      {"measurement": "Heart rate", "setting": "[1]; 0 hr", "value": "402 ± 6.9", "unit": "bpm"},
      {"measurement": "Heart rate", "setting": "[1]; 2 week", "value": "402 ± 6.7", "unit": "bpm"},
      {"measurement": "Heart rate", "setting": "[1]; 4 week", "value": "404 ± 4.8", "unit": "bpm"},
      {"measurement": "Heart rate", "setting": "[1]; 6 week", "value": "403 ± 6.1", "unit": "bpm"},
      {"measurement": "Heart rate", "setting": "[1]; 8 week", "value": "402 ± 3.0", "unit": "bpm"},
      {"measurement": "Heart rate", "setting": "[1]; 4 hr", "value": "401 ± 6.5", "unit": "bpm"},
      {"measurement": "Heart rate", "setting": "[1]; 8 hr", "value": "400 ± 4.8", "unit": "bpm"},
      {"measurement": "Heart rate", "setting": "[1]; 24 hr", "value": "402 ± 4.9", "unit": "bpm"},
      {"measurement": "DBP", "setting": "[2]; [7]", "value": "143 ± 2.9", "unit": "mmHg"},
      {"measurement": "SBP", "setting": "[2]; [7]", "value": "180 ± 3.6", "unit": "mmHg"},
      {"measurement": "DBP", "setting": "[2]; [8]", "value": "145 ± 3.6", "unit": "mmHg"},
      {"measurement": "SBP", "setting": "[2]; [8]", "value": "178 ± 5.4", "unit": "mmHg"},
      {"measurement": "DBP", "setting": "[2]; [9]", "value": "140 ± 3.8", "unit": "mmHg"},
      {"measurement": "SBP", "setting": "[2]; [9]", "value": "171 ± 3.1", "unit": "mmHg"},
      {"measurement": "DBP", "setting": "[2]; [10]", "value": "139 ± 1.9", "unit": "mmHg"},
      {"measurement": "SBP", "setting": "[2]; [10]", "value": "175 ± 7.6", "unit": "mmHg"},
      {"measurement": "DBP", "setting": "[2]; [11]", "value": "135 ± 2.7", "unit": "mmHg"},
      {"measurement": "SBP", "setting": "[2]; [11]", "value": "175 ± 7.6", "unit": "mmHg"},
      {"measurement": "BUN", "setting": "[3]", "value": "23.7 ± 0.8", "unit": "mg/dL"},
      {"measurement": "Creatinine", "setting": "[3]", "value": "0.48 ± 0.1", "unit": "mg/dL"},
      {"measurement": "Creatinine phosphokinase", "setting": "[3]", "value": "287.0 ± 12.2", "unit": "U/L"},
      {"measurement": "Potassium", "setting": "[3]", "value": "8.8 ± 0.4", "unit": "meq/L"},
      {"measurement": "Sodium", "setting": "[3]", "value": "152.4 ± 0.9", "unit": "meq/L"},
      {"measurement": "Uric acid", "setting": "[3]", "value": "5.8 ± 0.6", "unit": "mg/dL"},
      {"measurement": "A/G ratio", "setting": "[4]", "value": "2.1 ± 0.4"},
      {"measurement": "ALT", "setting": "[4]", "value": "85.7 ± 6.1", "unit": "U/L"},
      {"measurement": "AST", "setting": "[4]", "value": "125.8 ± 4.6", "unit": "U/L"},
      {"measurement": "Albumin", "setting": "[4]", "value": "5.4 ± 0.2", "unit": "g/dL"},
      {"measurement": "Alkaline phosphatase", "setting": "[4]", "value": "143.3 ± 7.6", "unit": "IU/L"},
      {"measurement": "Globulin", "setting": "[4]", "value": "2.6 ± 0.1", "unit": "g/dL"},
      {"measurement": "Total protein", "setting": "[4]", "value": "8.2 ± 0.1", "unit": "g/dL"},
      {"measurement": "DBP", "setting": "[5]; [12]", "value": "143 ± 2.9", "unit": "mmHg"},
      {"measurement": "SBP", "setting": "[5]; [12]", "value": "180 ± 3.6", "unit": "mmHg"},
      {"measurement": "DBP", "setting": "[5]; [13]", "value": "143 ± 3.8", "unit": "mmHg"},
      {"measurement": "SBP", "setting": "[5]; [13]", "value": "178 ± 5.4", "unit": "mmHg"},
      {"measurement": "DBP", "setting": "[5]; [14]", "value": "134 ± 4.9", "unit": "mmHg"},
      {"measurement": "SBP", "setting": "[5]; [14]", "value": "171 ± 3.1", "unit": "mmHg"},
      {"measurement": "DBP", "setting": "[5]; [15]", "value": "137 ± 4.2", "unit": "mmHg"},
      {"measurement": "SBP", "setting": "[5]; [15]", "value": "175 ± 7.6", "unit": "mmHg"},
      {"measurement": "Cholesterol", "setting": "[6]", "value": "79.8 ± 3.6", "unit": "mg/dL"},
      {"measurement": "Cholesterol/HDL-C", "setting": "[6]", "value": "1.3 ± 0.1"},
      {"measurement": "HDL-C", "setting": "[6]", "value": "60.3 ± 1.9", "unit": "mg/dL"},
      {"measurement": "LDL-C", "setting": "[6]", "value": "10.0 ± 0.7", "unit": "mg/dL"},
      {"measurement": "Triacylglycerol", "setting": "[6]", "value": "69.3 ± 6.8", "unit": "mg/dL"}
    ]}
  ]
}
